Test results reported in ChEMBL document CHEMBL5104111, “Boron-Containing heterocycles as promising pharmacological agents” (Bioorg Med Chem, 2022).
≈ marks a conversion by molar mass, not a printed value.

What was measured:
Escherichia coli [1] = test: Antibacterial activity against Escherichia coli ATCC 25922 assessed as bacterial growth inhibition incubated for 72 hrs by broth microdilution method; type: functional
[2] = tested on: Mycolicibacterium smegmatis; test: Antibacterial activity against Mycobacterium smegmatis ATCC 700084 assessed as bacterial growth inhibition incubated for 72 hrs by broth microdilution method; type: functional
[3] = target: cAMP and cAMP-inhibited cGMP 3',5'-cyclic phosphodiesterase 10A (Homo sapiens, UniProt Q9Y233); test: Inhibition of PDE10A (unknown origin)
Caco-2 = test: Anticancer activity against human Caco-2 cells assessed as cell growth inhibition by cytometry; type: functional, cell-based
[4] = Anticancer activity against human 1321N1 cells assessed as cell growth inhibition by dynamic assay; type: functional, cell-based
Escherichia coli [5] = test: Antibacterial activity against Escherichia coli assessed as bacterial growth inhibition; type: functional
Klebsiella pneumoniae = test: Antibacterial activity against Klebsiella pneumoniae assessed as bacterial growth inhibition; type: functional
Candida albicans [6] = test: Antifungal activity against Candida albicans assessed as fungal growth inhibition at 25 ug incubated for 48 hrs by disk diffusion method; type: functional; settings: read-out: IZ
Aspergillus niger [7] = test: Antifungal activity against Aspergillus niger assessed as fungal growth inhibition at 25 ug incubated for 48 hrs by disk diffusion method; type: functional; settings: read-out: IZ
Aspergillus niger [8] = test: Antifungal activity against Aspergillus niger assessed as fungal growth inhibition at 50 ug incubated for 96 hrs by disk diffusion method; type: functional; settings: read-out: IZ
Verticillium dahliae = test: Antifungal activity against Verticillium dahliae assessed as fungal growth inhibition at 50 ug incubated for 96 hrs by disk diffusion method; type: functional; settings: read-out: IZ
Staphylococcus aureus = test: Antibacterial activity against Staphylococcus aureus ATCC 43300 assessed as bacterial growth inhibition incubated for 1 hr by plate colony counting method; type: functional
Streptococcus mutans [9] = test: Antibacterial activity against Streptococcus mutans assessed as bacterial growth inhibition; type: functional
MDA-MB-231 = test: Anticancer activity against human MDA-MB-231 cells assessed as cell growth inhibition incubated for 72 hrs by MTT assay; type: functional, cell-based; settings: MDA-MB-231, 72 h
MIA PaCa-2 = test: Anticancer activity against human MIA PaCa-2 cells assessed as cell growth inhibition incubated for 72 hrs by MTT assay; type: functional, cell-based; settings: MIA PaCa-2, 72 h
Klebsiella aerogenes = test: Antibacterial activity against Enterobacter aerogenes ATCC 13048 assessed as bacterial growth inhibition at 10 mg/ml by hollow agar method; type: functional; settings: read-out: IZ
Aspergillus niger [10] = test: Antifungal activity against Aspergillus niger assessed as fungal growth inhibition incubated for 48 hrs by agar diffusion method; type: functional; settings: Aspergillus niger
Prototheca zopfii = test: Antimicrobial activity against Prototheca zopfii assessed as microbial growth inhibition by CLSI protocol based assay; type: functional
[11] = tested on: Mycobacterium tuberculosis; test: Antibacterial activity against Mycobacterium tuberculosis assessed as bacterial growth inhibition; type: functional
HepG2 = test: Cytotoxicity against human HepG2 cells assessed as cell growth inhibition incubated for 72 hrs by Cell Titer Glo assay; type: functional, cell-based; settings: HepG2, 72 h
[12] = tested on: Mycobacterium tuberculosis; test: Antibacterial activity against Mycobacterium tuberculosis H37Rv ATCC 25618 assessed as bacterial growth inhibition incubated for 5 days by fluorescence based assay; type: functional, organism-based; settings: H37Rv ATCC 25618, 120 h
[13] = tested on: Mycolicibacterium smegmatis; test: Antibacterial activity against Mycobacterium smegmatis assessed as bacterial growth inhibition; type: functional
Candida albicans [14] = test: Antifungal activity against Candida albicans ATCC 14053 assessed as fungal growth inhibition by broth microdilution method; type: functional
Vanrija humicola = test: Antifungal activity against Cryptococcus humicola ATCC 9949 assessed as fungal growth inhibition by broth microdilution method; type: functional
Aspergillus niger [15] = test: Antifungal activity against Aspergillus niger ATCC 16404 assessed as fungal growth inhibition by broth microdilution method; type: functional
Fusarium oxysporum = test: Antifungal activity against Fusarium oxysporum VKM F-140 assessed as fungal growth inhibition by broth microdilution method; type: functional
A549 = test: Cytotoxicity against human A549 cells assessed as cell growth inhibition; type: functional
Streptococcus mutans [16] = test: Antibiofilm activity against Streptococcus mutans ATCC 27351 assessed as bacterial viability at 0.9 uM by SYTO/PI staining based inverted microscopy relative to control; type: functional
LN-229 = test: Anticancer activity against human LN-229 cells assessed as cell growth inhibition by trypan blue exclusion assay; type: functional, cell-based
Pseudomonas aeruginosa = test: Antibacterial activity against Pseudomonas aeruginosa assessed as bacterial growth inhibition by broth microdilution method; type: functional
Saccharomyces cerevisiae = test: Antifungal activity against Saccharomyces cerevisiae assessed as fungal growth inhibition at 100 ug; type: functional; settings: read-out: IZ
[17] = tested on: Mycobacterium tuberculosis; test: Antibacterial activity against Mycobacterium tuberculosis H37Rv ATCC 27294 assessed as bacterial growth inhibition by radiometry method; type: functional

Sequence of cAMP and cAMP-inhibited cGMP 3',5'-cyclic phosphodiesterase 10A (Q9Y233 whole entry): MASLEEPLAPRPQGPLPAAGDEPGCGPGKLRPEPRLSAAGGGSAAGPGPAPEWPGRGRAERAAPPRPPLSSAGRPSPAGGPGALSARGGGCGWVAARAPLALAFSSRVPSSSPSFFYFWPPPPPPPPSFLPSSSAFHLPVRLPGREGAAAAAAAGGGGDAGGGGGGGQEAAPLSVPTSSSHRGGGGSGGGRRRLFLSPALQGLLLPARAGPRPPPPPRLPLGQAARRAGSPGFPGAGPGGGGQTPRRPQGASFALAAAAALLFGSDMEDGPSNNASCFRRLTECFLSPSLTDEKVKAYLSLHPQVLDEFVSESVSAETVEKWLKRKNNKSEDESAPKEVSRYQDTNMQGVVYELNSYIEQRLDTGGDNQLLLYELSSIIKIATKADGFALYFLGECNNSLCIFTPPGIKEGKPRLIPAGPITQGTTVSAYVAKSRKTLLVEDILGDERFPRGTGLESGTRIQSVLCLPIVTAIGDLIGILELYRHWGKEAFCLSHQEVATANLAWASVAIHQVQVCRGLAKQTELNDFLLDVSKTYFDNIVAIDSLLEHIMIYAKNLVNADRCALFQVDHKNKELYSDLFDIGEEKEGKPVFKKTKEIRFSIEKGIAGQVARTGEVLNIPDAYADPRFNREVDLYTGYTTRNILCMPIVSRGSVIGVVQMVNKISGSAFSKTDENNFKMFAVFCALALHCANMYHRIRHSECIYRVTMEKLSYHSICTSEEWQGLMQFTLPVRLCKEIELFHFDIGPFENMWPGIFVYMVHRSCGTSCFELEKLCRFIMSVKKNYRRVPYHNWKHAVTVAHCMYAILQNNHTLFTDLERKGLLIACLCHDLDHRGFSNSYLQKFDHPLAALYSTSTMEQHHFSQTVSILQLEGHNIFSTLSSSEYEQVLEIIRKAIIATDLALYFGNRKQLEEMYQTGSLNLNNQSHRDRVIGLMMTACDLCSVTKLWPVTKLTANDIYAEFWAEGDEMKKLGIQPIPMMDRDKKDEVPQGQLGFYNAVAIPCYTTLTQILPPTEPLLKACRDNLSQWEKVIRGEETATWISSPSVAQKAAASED

Which results are given for `NC(=O)N1N=Cc2ccccc2B1O`?
MIC (Escherichia coli [1]): 16 µg/mL (≈ 84.7 µM); MIC [2]: 2 µg/mL (≈ 10.6 µM)

Which IC50 [3] does the source give for `CN(C(=O)c1nc(-c2cccnc2)cs1)c1ccc(OCB2C=Cc3ccccc3N2)cc1` here?
Its IC50 is 0.33 µM.

With `CC(C)C1=[N+](Cc2cccc(C(F)(F)F)c2)[B-](c2ccccc2)(c2ccccc2)OC1=O` as the molecule, how does the IC50 (Caco-2) read?
Its IC50 is 76 µM.

What about the IC50 [4] of the same molecule?
The IC50 was 268 µM.

With `Cc1ccc(S(=O)(=O)N2N=Cc3ccccc3B2O)cc1` as the molecule, how does the MIC (Escherichia coli [5]) read?
Its MIC is 25 µg/mL (≈ 83.3 µM).

What about the MIC (Klebsiella pneumoniae) of the same molecule?
The MIC was 3.1 µg/mL (≈ 10.3 µM).

Which results are given for `NC(=S)N1N=Cc2ccccc2B1O`?
MIC (Escherichia coli [1]): 16 µg/mL (≈ 78 µM); MIC [2]: 4 µg/mL (≈ 19.5 µM); zone of inhibition at 25 µg/disc (Candida albicans [6]): 6 mm; zone of inhibition at 25 µg/disc (Aspergillus niger [7]): 7 mm; zone of inhibition at 50 µg/disc (Aspergillus niger [8]): 3.1 mm; zone of inhibition at 50 µg/disc (Verticillium dahliae): 3.7 mm

For `Cc1cccc(N2B(c3cccc([N+](=O)[O-])c3)ON=C2c2ccccc2)c1`, which MIC (Staphylococcus aureus) is on record?
The MIC was 0.06 µM (≈ 0.0214 µg/mL).

Which MIC (Streptococcus mutans [9]) does the source give for `CC1NB(c2ccccc2)OC1c1ccccc1` (configuration not stated) here?
The MIC was 1300 µM (≈ 308 µg/mL).

Which IC50 (MDA-MB-231) does the source give for `OB1OCc2ccc(NCc3cc4ccccc4cc3Cl)cc21` here?
Its IC50 is 11.9 µM.

What about the IC50 (MIA PaCa-2) of the same molecule?
The IC50 was 2.7 µM.

Which zone of inhibition at 10000 µg/mL (Klebsiella aerogenes) does the source give for `CCN(CC)c1ccc(B2Oc3ccc(C(C)(C)C)cc3O2)cc1` here?
Its zone of inhibition at 10000 µg/mL is 30.3 mm.

With `OB1OCc2cc(F)ccc21` [TAVABOROLE] as the molecule, how does the MIC (Aspergillus niger [10]) read?
The MIC was 2 µg/mL (≈ 13.2 µM).

For `COc1ccc([N+]2=C(c3ccccc3)C=C(C(Cl)(Cl)Cl)O[B-]2(F)F)cc1`, which MIC (Prototheca zopfii) is on record?
Its MIC is 0.3 µg/mL (≈ 0.717 µM).

What does the source list for `C=CCNC(=S)N1N=Cc2ccccc2B1O`?
zone of inhibition at 25 µg/disc (Candida albicans [6]): 9 mm; zone of inhibition at 25 µg/disc (Aspergillus niger [7]): 7 mm

For `N#Cc1ccccc1-c1cccc2c1B(O)OC2`, which IC90 [11] is on record?
Its IC90 is 30 µM.

What does the source list for `CS(=O)(=O)N1N=Cc2ccc(Oc3ccc(C(F)(F)F)cc3/C=N/O)cc2B1O`?
IC50 (HepG2): > 100 µM; IC50 [12]: 0.11 µM

With `O=C(c1ccncc1)N1N=Cc2ccccc2B1OB1c2ccccc2C=NN1C(=O)c1ccncc1` as the molecule, how does the MIC (Escherichia coli [5]) read?
Its MIC is 4 µg/mL (≈ 8.26 µM).

What about the MIC [13] of the same molecule?
Its MIC is 32 µg/mL.

Which results are given for `C[C@@H]1[C@H](O)[C@@H](C)/C=C/C=C/C=C/C=C/C=C/C=C/C=C/[C@H](O[C@@H]2O[C@H](C)[C@@H](O)[C@H](NC(=O)CCc3ccc4c(c3)OB(O)C4)[C@@H]2O)C[C@@H]2O[C@](O)(C[C@@H](O)C[C@@H](O)[C@H](O)CC[C@@H](O)C[C@@H](O)CC(=O)O[C@H]1C)C[C@H](O)[C@H]2C(=O)O`?
MIC (Candida albicans [14]): 0.5 µg/mL (≈ 0.45 µM); MIC (Vanrija humicola): 0.5 µg/mL (≈ 0.45 µM); MIC (Aspergillus niger [15]): 0.5 µg/mL (≈ 0.45 µM); MIC (Fusarium oxysporum): 0.5 µg/mL (≈ 0.45 µM)

With `O=C(NCCCOCCOCCOCCCNC(=O)c1ccc2c(c1)B(O)OC2)c1ccc2c(c1)COB2O` as the molecule, how does the MIC [13] read?
Its MIC is 1.56 µM.

What about the MIC99 (A549) of the same molecule?
Its MIC99 is over 5 µM.

For `CC1(C)COB(c2ccccc2)N1`, which Activity (Streptococcus mutans [16]) is on record?
Its Activity is 60%.

With `CC(C)[C@@H]1[NH2+][B-](c2ccc(F)cc2F)(c2ccc(F)cc2F)OC1=O` as the molecule, how does the IC50 (LN-229) read?
The IC50 was 49 µM.

Which MIC (Pseudomonas aeruginosa) does the source give for `Clc1ccc(-c2noc3c2COB(c2ccc(Br)cc2)OC3)cc1` here?
The MIC was 25 µg/mL (≈ 61.8 µM).

For `CCNC(=S)N1N=Cc2ccccc2B1O`, which zone of inhibition at 100 µg/disc (Saccharomyces cerevisiae) is on record?
Its zone of inhibition at 100 µg/disc is 4.3 mm.

With `OB1c2ccccc2NC(=S)N1c1ccccc1` as the molecule, how does the MIC [17] read?
The MIC was 8 µg/mL (≈ 31.5 µM).

With `O=C1Nc2ccccc2B(O)N1c1ccccc1` as the molecule, how does the MIC [17] read?
Its MIC is 8 µg/mL (≈ 33.6 µM).

With `COc1ccc(CN(C(=O)Nc2ccccc2)c2ccc3c(c2)B(O)OC3)cc1` as the molecule, how does the IC50 (MDA-MB-231) read?
Its IC50 is 11.5 µM.

And the IC50 (MIA PaCa-2)?
Its IC50 is 8.3 µM.

For `Clc1ccc(-c2noc3c2COB(c2cccc(Br)c2)OC3)cc1`, which MIC (Pseudomonas aeruginosa) is on record?
Its MIC is 25 µg/mL (≈ 61.8 µM).
